How the values were obtained:
[1] = target: T1, AR-LBD (GST) (Rattus norvegicus, UniProt P15207); assay: PolarScreen Androgen Receptor (AR) Competitor Assay, binding experiment of the antagonist and AR; settings: fluorescence polarization, incubated 6 hours, FIG. 1; read-out: IC50 of the drug and AR-LBD binding
T1 construct: purchased Life technologies company, USA
T1 sequence (P15207 651-882 limits assumed): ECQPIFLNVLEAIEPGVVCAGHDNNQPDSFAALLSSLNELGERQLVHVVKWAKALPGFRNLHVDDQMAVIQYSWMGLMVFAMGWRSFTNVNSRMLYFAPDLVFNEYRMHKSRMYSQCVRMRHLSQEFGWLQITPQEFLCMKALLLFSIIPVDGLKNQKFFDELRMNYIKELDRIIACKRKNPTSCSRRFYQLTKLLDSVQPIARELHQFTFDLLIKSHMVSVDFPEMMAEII
Excerpt: PolarScreen™ Androgen Receptor (AR) Competitor Assay, Green kit (Life technologies company, USA) is used to test the affinity of the antagonist to AR-LBD (GST). The mechanism of the experiment is that the AR-LBD is combined with a small molecule fluormone tracer (Fluormone Tracer), and an antagonist added can competitively bind with AR-LBD so as to replace the fluormone tracer, and the replaced fluormone tracer […], and the value of the fluorescence polarization is inversely proportional to the number of the replaced tracers.
A specific process is as follows: the drug is dissolved into 500 uM by using DMSO, and then diluted to 244 nM by double dilution concentration gradients in a 96-well plate. A 10 uL of a reaction system AR-LBD+Tracer is configured in a 384-well plate and 10 uL of the drug solution is added. The positive control is 10 uL of AR-LBD+Tracer with 10 uL of DHT added. The 384-well plate is wrapped by tin foil and incubated for 6 hours in the dark. The fluorescence polarization value is read on a multi-function microplate reader. Graphpad Prism software is used to draw a drug concentration as an abscissa, and the fluorescence polarization value is used as an ordinate for drawing a curve. […] Herein, the DHT, MDV3100, and ARN509 are positive controls.

[2] = target: T2, androgen receptor (AR) (Homo sapiens, UniProt P10275); assay: Luciferase reporter gene experiment (MMTV-LUC + pSV-AR in 293T cells); type: cell-based; settings: 10 nM DHT, FIG. 2
T2 construct: expressed in transfected cells; host or cells: 293T cells
T2 sequence (P10275 1-920): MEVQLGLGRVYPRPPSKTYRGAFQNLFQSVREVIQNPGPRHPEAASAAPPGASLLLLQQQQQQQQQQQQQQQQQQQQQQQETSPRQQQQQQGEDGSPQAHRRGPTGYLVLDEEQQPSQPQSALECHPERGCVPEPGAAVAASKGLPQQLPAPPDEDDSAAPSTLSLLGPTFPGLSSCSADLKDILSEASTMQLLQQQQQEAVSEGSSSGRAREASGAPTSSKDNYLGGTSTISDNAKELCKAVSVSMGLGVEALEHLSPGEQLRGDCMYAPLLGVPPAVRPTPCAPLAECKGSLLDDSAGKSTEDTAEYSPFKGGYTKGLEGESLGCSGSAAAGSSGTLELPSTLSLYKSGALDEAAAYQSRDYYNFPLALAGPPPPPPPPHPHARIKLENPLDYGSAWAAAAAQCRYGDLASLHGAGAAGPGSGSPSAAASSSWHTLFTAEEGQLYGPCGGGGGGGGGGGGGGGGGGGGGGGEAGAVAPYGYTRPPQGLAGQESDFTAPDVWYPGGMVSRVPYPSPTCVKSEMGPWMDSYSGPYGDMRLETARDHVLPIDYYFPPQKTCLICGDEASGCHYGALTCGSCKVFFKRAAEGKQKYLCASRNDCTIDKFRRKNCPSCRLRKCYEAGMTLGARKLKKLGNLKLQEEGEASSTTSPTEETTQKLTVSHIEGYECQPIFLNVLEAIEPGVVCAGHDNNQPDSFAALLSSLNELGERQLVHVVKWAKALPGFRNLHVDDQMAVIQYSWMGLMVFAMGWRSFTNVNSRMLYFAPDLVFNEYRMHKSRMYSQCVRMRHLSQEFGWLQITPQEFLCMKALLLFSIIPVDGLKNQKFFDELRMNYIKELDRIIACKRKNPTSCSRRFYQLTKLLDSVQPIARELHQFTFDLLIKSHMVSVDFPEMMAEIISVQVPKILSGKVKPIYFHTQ
Procedure: 293T cells are cultured in a 96-well plate. AR plasmids and luciferase genes with AR target promoters are co-transfected in the 293T cells. AR activates the target promoters to express luciferase, and the expression level of the luciferase is directly proportional to AR activation. Adding DHT to the cells can activate AR and express the luciferase, thus enhancing fluorescence signal detection. By detecting the fluorescent signal, it can be examined whether an added drug has AR antagonist activity.
The luciferase reporter gene plasmid MMTV-LUC containing the androgen receptor (AR) target promoters and the plasmid pSV-AR expressing the androgen receptor (AR) are constructed. The 293T cells are inoculated in a 96-well plate, wherein each well containing 1×10^4 cells. The cells are incubated overnight to stick to the wall. On the second day, Lipofectamine® 3000 (Life technologies, USA) is used to transfect the plasmid into the cells. Each well is added with 180 ng of MMTV-LUC plasmid and 20 ng of pSV-AR plasmid. On the third day, each well is added with 10 nM of the DHT and the drugs of different concentrations of 1 nM, 10 nM, 100 nM, 1 uM, 10 uM, 25 uM, 50 uM respectively. The control is 10 nM of the DHT. On the fifth day, a luciferase reporter gene detection kit (Biyuntian company, China) is used to process the cells. 100 uL of cell lysate is added to the 96-well plate, and lyse for 20 min. Then centrifuging is performed at 4 degrees and 10000 g for 3 min. 50 uL of supernatant is taken and 100 uL of a luciferase detection reagent is added. After mixing, chemiluminescence is immediately detected on the multi-functional microplate reader. Graphpad Prism software is used to draw a curve by using the drug concentration as an abscissa and using drug fluorescence value/positive control fluorescence value as an ordinate. Herein MDV3100 is the positive control.

[3] = tested on: Histone deacetylase (HDAC); assay: HDAC inhibitory activity: Kac-tubulin Western Blot in VCaP cells; type: cell-based; settings: 10 uM drug, 24 h, FIG. 4
Procedure: (§1) The VCap cells are cultured in the 6-well plate. After treating the VCap cells with the drugs for 24 hours, acetylation levels of the tubulin in the cytoplasm and the H3 protein in the nucleus are examined by the western blot. An experiment process is as follows:
The VCaP cells are spread in the 6-well plate. 5×10^5 cells are inoculated per well, and incubated overnight to make the cells stick to a wall. On the second day, 10 uM of the drug is added per well. After being incubated for 24 h, the cells are collected, and lysed to extract the cell total protein. The Western Blot method is used to detect the expression levels of Kac-tubilin (localized cytoplasm) in the cells after treating with the different drugs.

[4] = tested on: Histone deacetylase (HDAC); assay: HDAC inhibitory activity: Kac-H3 Western Blot in VCaP cells; type: cell-based; settings: 10 uM drug, 24 h, FIG. 5
Procedure: as §1
The VCaP cells are spread in the 6-well plate. 5×10^5 cells are inoculated per well, and incubated overnight to make the cells stick to a wall. Then 10 uM of the drug is added to each well. The cells are collected after being incubated for 24 h. The EpiQuik Total Histone Extraction kit (Epigentek, USA) is used to extract the histones, and the Western Blot method is used to detect expression levels of Kac-H3 (localized cell nucleus) in the cells after adding the different drugs.

[5] = tested on: VCaP cells; assay: Inhibiting effect on VCaP cell proliferation (MTS); type: cell-based; settings: 4 days treatment, FIG. 6; for cell proliferation inhibitory effect compared with positive control drug MDV3100: VCaP cells
Procedure: Androgen-sensitive prostate cancer cell (VCaP cells) are cultured in a 96-well plate. The VCaP cells are able to proliferate in a medium supplemented with 10 nM of the DHT. After treating the cells with the drugs for 4 days, we measure the effects of the drugs on the proliferation of the prostate cancer cells.
The VCaP cells are cultured by using 5% CSS and 1640 medium without phenol red, and inoculated in the 96-well plate. 1×10^4 cells are added to each well, and incubated overnight to make the cells stick to a wall. Different concentrations of the drugs are added on the second day. After treating the cells with the drugs for 4 days, cell viability is measured by the MTS kit (Promega, USA). To each well, 10% of an MTS reagent is added, and incubation continued for 2 hours. The absorbance value at […] is then measured by the multi-functional microplate reader. The Graphpad Prism software is used to draw a curve by using the drug concentration as an abscissa and using the absorbance value of the drug treatment/the absorbance value of the blank treatment cell as an ordinate.

Compound | IC50 [1] [µM] | antagonist effect on the AR, antagonistic ability from high to low [2] | acetylation of the tubulin in the cytoplasm (HDAC inhibitory activity) [3] | H3 acetylation in the nucleus (HDAC inhibitory activity) [4] | inhibitory effect on the VCap cell proliferation, from high to low [5] | cell proliferation inhibitory effect compared with positive control drug MDV3100 [5]
CC1(C)C(=O)N(c2ccc(C#N)c(C(F)(F)F)c2)C(=S)N1c1ccc(C(=O)NO)c(F)c1 [Zeta 32, 4-(3-(4-cyano-3-(trifluoromethyl)phenyl)-5,5-dimethyl-4-oxo-2-thioimidazolidine-1-yl)-2-fluoro-N-hydroxybenzamide] | 25.1 | Zeta32>Zeta55>Zeta34>Zeta57>Zeta33 | superior | superior | Zeta55>Zeta32>Zeta33>Zeta34>Zeta57 | better than that of the positive control drug MDV3100
CC1(C)C(=O)N(c2cnc(C#N)c(C(F)(F)F)c2)C(=S)N1c1ccc(C(=O)NO)c(F)c1 [Zeta 33, 4-(3-(6-cyano-5-(trifluoromethyl)pyridin-3-yl)-5,5-dimethyl-4-oxo-2-thioimidazolidine-1-yl)-2-fluoro-N-hydroxybenzamide] | 27.5 | Zeta32>Zeta55>Zeta34>Zeta57>Zeta33 | – | – | Zeta55>Zeta32>Zeta33>Zeta34>Zeta57 | better than that of the positive control drug MDV3100
N#Cc1ncc(N2C(=O)C3(CCC3)N(c3ccc(C(=O)NO)c(F)c3)C2=S)cc1C(F)(F)F [Zeta 57, 4-(7-(6-cyano-5-(trifluoromethyl)pyridin-3-yl)-8-oxo-6-thio-5,7-diazaspiro[3.4]octane-5-yl)-2-fluoro-N-hydroxybenzamide] | – | Zeta32>Zeta55>Zeta34>Zeta57>Zeta33 | – | superior | Zeta55>Zeta32>Zeta33>Zeta34>Zeta57 | –
CC1(C)C(=O)N(c2ccc(C#N)c(Cl)c2)C(=S)N1c1ccc(C(=O)NO)c(F)c1 [Zeta 34, 4-(3-(3-chloro-4-cyanophenyl)-5,5-dimethyl-4-oxo-2-thioimidazolidine-1-yl)-2-fluoro-N-hydroxybenzamide] | – | Zeta32>Zeta55>Zeta34>Zeta57>Zeta33 | – | superior | Zeta55>Zeta32>Zeta33>Zeta34>Zeta57 | –
